Literature values as cited in patent US20180311347A1, “POLYMORPHISMS IN CACHEXIA PREDICT CLINICAL OUTCOMES OF COLORECTAL CANCER PATIENTS RECEIVING IRINOTECAN AND BEVACIZUMAB” (University of Southern California, priority 2017, published 2018).

Tested on: type I activin like receptor

VEGF expression: decrease VEGF expression | angiogenesis: inhibit angiogenesis
SMILES: NC(=O)c1ccc(-c2nc(-c3ccc4c(c3)OCO4)c(-c3ccccn3)[nH]2)cc1 [SB431542]
